# In patent US9708314B2, “Heterocyclic amide compound” (NISSAN CHEMICAL INDUSTRIES, LTD., priority 2013, dated 2017):
# Where “and” joins values, the source holds several entries; their conditions need not be identical. Equal values may be shown once.
# How the values were obtained:
# Type in all cases: in vivo
# [1] = tested on: Echinochloa oryzacola Vasing.; test: Test Example 1: herbicidal activity, application before weed generation in submerged conditions; conditions: Application herbicide amount 320 g/ha; Seventeenth Table
# In short: (§1)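 Submerged pot test: alluvial soil, 4 cm water, seeds sown mixed, 2.5-leaf rice transplanted; emulsion in water applied to surface day of sowing, dose g/ha; greenhouse 25–30° C.; 3 wk; 0–5 rating.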
# Monochoria vaginalis [2] = test: as above; conditions: Application herbicide amount 320 g/ha; Seventeenth Table
# In short: as §1
# Scirpus juncoides [3] = test: as above; conditions: Application herbicide amount 320 g/ha; Seventeenth Table
# In short: as §1
# [4] = tested on: transplanted Oryza sativa; test: Test Example 1: effect on crop, application before weed generation in submerged conditions; conditions: Application herbicide amount 320 g/ha; Seventeenth Table
# In short: as §1
# [5] = tested on: Echinochloa oryzacola Vasing.; test: Test Example 2: herbicidal activity, application during weed generation in submerged conditions; conditions: Eighteenth Table; application herbicide amount 320 g/ha
# In short: (§2)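 Paddy-type pot test: flooded soil, 4 cm depth, greenhouse 25–30 °C. Emulsion formulation diluted in water, applied to water surface at 1–2 leaf stage; rate expressed as g/ha. Read-out at 3 wk, 0–5 score.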
# Monochoria vaginalis [6] = test: as above; conditions: Eighteenth Table; application herbicide amount 320 g/ha
# In short: as §2
# Scirpus juncoides [7] = test: as above; conditions: Eighteenth Table; application herbicide amount 320 g/ha
# In short: as §2
# Cyperus difformis = test: Test Example 3: herbicidal effect by application to foliage (Wagner pot, water depth 0.1-0.5 cm); conditions: Nineteenth Table; application to foliage; application herbicide amount 320 g/ha
# In short: (§3)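 Seeds were sown in alluvial soil in Wagner pots, grown for 14 days at 25–30 °C, then sprayed uniformly on foliage with the emulsified compound diluted to a given rate per hectare. Injury was graded three weeks after treatment from 0 (≤5%) to 5 (≥90%).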
# [8] = tested on: Echinochloa crus-galli var. crus-galli; test: as above; conditions: Nineteenth Table; application to foliage; application herbicide amount 320 g/ha
# In short: as §3
# Leptochloa chinensis = test: as above; conditions: Nineteenth Table; application to foliage; application herbicide amount 320 g/ha
# In short: as §3
Compound,A: Echinochloa oryzicola Vasing. (herbicidal effect grade) [1],C: Monochoria vaginalis (herbicidal effect grade) (Monochoria vaginalis [2]),B: Scirpus juncoides (herbicidal effect grade) (Scirpus juncoides [3]),a: transplanted Oryza sativa (effect on crop grade) [4],A (Echinochloa oryzicola Vasing.) herbicidal ratio grade [5],C (Monochoria vaginalis) herbicidal ratio grade (Monochoria vaginalis [6]),B (Scirpus juncoides) herbicidal ratio grade (Scirpus juncoides [7]),E (herbicidal effect grade) (Cyperus difformis),H (herbicidal effect grade) [8],D (herbicidal effect grade) (Leptochloa chinensis)
Cn1nnnc1NC(=O)c1ccc(C(F)(F)F)n2c(SCC#N)nnc12 [2-086],3 (Herbicidal ratio of 40% or more and less than 70%),3 (Herbicidal ratio of 40% or more and less than 70%),2 (Herbicidal ratio of 20% or more and less than 40%),0 (Herbicidal ratio of 5% or less (almost no effect)),0 (Herbicidal ratio of 5% or less (almost no effect)),1 (Herbicidal ratio of 5% or more and less than 20%),2 (Herbicidal ratio of 20% or more and less than 40%),4 (Herbicidal ratio of 70% or more and less than 90%),5 (Herbicidal ratio of 90% or more (almost completely withered)),5 (Herbicidal ratio of 90% or more (almost completely withered))
CC(C)N(C)c1nnc2c(C(=O)Nc3nnnn3C)ccc(C(F)(F)F)n12 [2-082],5 (Herbicidal ratio of 90% or more (almost completely withered)),5 (Herbicidal ratio of 90% or more (almost completely withered)),5 (Herbicidal ratio of 90% or more (almost completely withered)),5 (Herbicidal ratio of 90% or more (almost completely withered)),5 (Herbicidal ratio of 90% or more (almost completely withered)),3 (Herbicidal ratio of 40% or more and less than 70%),4 (Herbicidal ratio of 70% or more and less than 90%),5 (Herbicidal ratio of 90% or more (almost completely withered)),5 (Herbicidal ratio of 90% or more (almost completely withered)),5 (Herbicidal ratio of 90% or more (almost completely withered))
CSCCn1nnnc1NC(=O)c1ccc(C(F)(F)F)n2c(C(C)C)nnc12 [2-048],5 (Herbicidal ratio of 90% or more (almost completely withered)),4 (Herbicidal ratio of 70% or more and less than 90%),5 (Herbicidal ratio of 90% or more (almost completely withered)),4 (Herbicidal ratio of 70% or more and less than 90%),3 (Herbicidal ratio of 40% or more and less than 70%),3 (Herbicidal ratio of 40% or more and less than 70%),4 (Herbicidal ratio of 70% or more and less than 90%),5 (Herbicidal ratio of 90% or more (almost completely withered)),5 (Herbicidal ratio of 90% or more (almost completely withered)),5 (Herbicidal ratio of 90% or more (almost completely withered))
COc1ccc(CSc2nnc3c(C(=O)Nc4nnnn4C)ccc(C(F)(F)F)n23)cc1 [2-077],5 (Herbicidal ratio of 90% or more (almost completely withered)),3 (Herbicidal ratio of 40% or more and less than 70%),3 (Herbicidal ratio of 40% or more and less than 70%),1 (Herbicidal ratio of 5% or more and less than 20%),2 (Herbicidal ratio of 20% or more and less than 40%),2 (Herbicidal ratio of 20% or more and less than 40%),2 (Herbicidal ratio of 20% or more and less than 40%),3 (Herbicidal ratio of 40% or more and less than 70%),2 (Herbicidal ratio of 20% or more and less than 40%),4 (Herbicidal ratio of 70% or more and less than 90%)
Cc1ccc(-c2nnc3c(C(=O)Nc4nnnn4C)ccc(C(F)(F)F)n23)cc1 [2-042],5 (Herbicidal ratio of 90% or more (almost completely withered)),4 (Herbicidal ratio of 70% or more and less than 90%),4 (Herbicidal ratio of 70% or more and less than 90%),5 (Herbicidal ratio of 90% or more (almost completely withered)),4 (Herbicidal ratio of 70% or more and less than 90%),4 (Herbicidal ratio of 70% or more and less than 90%),3 (Herbicidal ratio of 40% or more and less than 70%),5 (Herbicidal ratio of 90% or more (almost completely withered)),5 (Herbicidal ratio of 90% or more (almost completely withered)),5 (Herbicidal ratio of 90% or more (almost completely withered))
Cn1nnnc1NC(=O)c1ccc(C(F)(F)F)n2c(-c3ccc(Cl)nc3)nnc12 [2-060],5 (Herbicidal ratio of 90% or more (almost completely withered)),5 (Herbicidal ratio of 90% or more (almost completely withered)),5 (Herbicidal ratio of 90% or more (almost completely withered)),5 (Herbicidal ratio of 90% or more (almost completely withered)),5 (Herbicidal ratio of 90% or more (almost completely withered)),5 (Herbicidal ratio of 90% or more (almost completely withered)),4 (Herbicidal ratio of 70% or more and less than 90%) and 3 (Herbicidal ratio of 40% or more and less than 70%),5 (Herbicidal ratio of 90% or more (almost completely withered)),5 (Herbicidal ratio of 90% or more (almost completely withered)),5 (Herbicidal ratio of 90% or more (almost completely withered))
CSCCc1nnc2c(C(=O)Nc3nnnn3C)ccc(C(F)(F)F)n12 [2-057],4 (Herbicidal ratio of 70% or more and less than 90%),4 (Herbicidal ratio of 70% or more and less than 90%),4 (Herbicidal ratio of 70% or more and less than 90%),4 (Herbicidal ratio of 70% or more and less than 90%),4 (Herbicidal ratio of 70% or more and less than 90%),4 (Herbicidal ratio of 70% or more and less than 90%),4 (Herbicidal ratio of 70% or more and less than 90%),5 (Herbicidal ratio of 90% or more (almost completely withered)),5 (Herbicidal ratio of 90% or more (almost completely withered)),5 (Herbicidal ratio of 90% or more (almost completely withered))
CC(c1nnc2c(C(=O)Nc3nnnn3C)ccc(C(F)(F)F)n12)[S+](C)[O-] (stereo not drawn) [2-053],5 (Herbicidal ratio of 90% or more (almost completely withered)),4 (Herbicidal ratio of 70% or more and less than 90%),5 (Herbicidal ratio of 90% or more (almost completely withered)),5 (Herbicidal ratio of 90% or more (almost completely withered)),5 (Herbicidal ratio of 90% or more (almost completely withered)),4 (Herbicidal ratio of 70% or more and less than 90%),4 (Herbicidal ratio of 70% or more and less than 90%),5 (Herbicidal ratio of 90% or more (almost completely withered)),5 (Herbicidal ratio of 90% or more (almost completely withered)),5 (Herbicidal ratio of 90% or more (almost completely withered))
Cn1nnnc1NC(=O)c1ccc(C(F)(F)F)n2c(SCc3ccccc3)nnc12 [2-076],5 (Herbicidal ratio of 90% or more (almost completely withered)),3 (Herbicidal ratio of 40% or more and less than 70%),4 (Herbicidal ratio of 70% or more and less than 90%),2 (Herbicidal ratio of 20% or more and less than 40%),2 (Herbicidal ratio of 20% or more and less than 40%),2 (Herbicidal ratio of 20% or more and less than 40%),3 (Herbicidal ratio of 40% or more and less than 70%),4 (Herbicidal ratio of 70% or more and less than 90%),5 (Herbicidal ratio of 90% or more (almost completely withered)),4 (Herbicidal ratio of 70% or more and less than 90%)
